Data from ChEMBL document CHEMBL1629585, “Nationwide survey of CTX-M-type extended-spectrum beta-lactamases among Klebsiella pneumoniae isolates in Slovenian hospitals” (2009).
In brackets after ≈: the same amount, converted by molar mass.

Assays:
[1] = tested on: Escherichia coli; test: Antibacterial activity against Escherichia coli TrC A expressing Klebsiella pneumoniae A blaCTX-M beta-lactamase by Etest method in presence of clavulanic acid
[2] = tested on: Klebsiella pneumoniae; test: Antibacterial activity against Klebsiella pneumoniae D expressing CTX-M group 1 beta-lactamase by Etest method in presence of clavulanic acid; type: functional
[3] = tested on: Escherichia coli; test: Antibacterial activity against Escherichia coli TrC A expressing Klebsiella pneumoniae A blaCTX-M beta-lactamase by Etest method; type: functional
[4] = tested on: Klebsiella pneumoniae; test: Antibacterial activity against Klebsiella pneumoniae expressing CTX-M group 1 beta-lactamase by Etest method; type: functional
[5] = tested on: Escherichia coli; test: Antibacterial activity against rifampicin resistant Escherichia coli J53-2 by Etest method in presence of clavulanic acid; type: functional
[6] = tested on: Escherichia coli; test: Antibacterial activity against Escherichia coli TrC B expressing Klebsiella pneumoniae B blaCTX-M beta-lactamase by Etest method; type: functional
[7] = tested on: Escherichia coli; test: Antibacterial activity against Escherichia coli TrC B expressing Klebsiella pneumoniae B blaCTX-M beta-lactamase by Etest method in presence of clavulanic acid
[8] = tested on: Klebsiella pneumoniae; test: Antibacterial activity against Klebsiella pneumoniae expressing CTX-M group 1 beta-lactamase by Etest method in presence of clavulanic acid; type: functional
[9] = tested on: Klebsiella pneumoniae; test: Antibacterial activity against Klebsiella pneumoniae B expressing CTX-M group 1 beta-lactamase by Etest method in presence of clavulanic acid; type: functional
[10] = tested on: Klebsiella pneumoniae; test: Antibacterial activity against Klebsiella pneumoniae A expressing CTX-M group 1 beta-lactamase by Etest method in presence of clavulanic acid; type: functional
[11] = tested on: Klebsiella pneumoniae; test: Antibacterial activity against Klebsiella pneumoniae D expressing CTX-M group 1 beta-lactamase by Etest method; type: functional
[12] = tested on: Klebsiella pneumoniae; test: Antibacterial activity against Klebsiella pneumoniae C expressing CTX-M group 1 beta-lactamase by Etest method; type: functional
[13] = tested on: Escherichia coli; test: Antibacterial activity against Escherichia coli TrC C expressing Klebsiella pneumoniae C blaCTX-M beta-lactamase by Etest method; type: functional
[14] = tested on: Escherichia coli; test: Antibacterial activity against Escherichia coli TrC C expressing Klebsiella pneumoniae C blaCTX-M beta-lactamase by Etest method in presence of clavulanic acid
[15] = tested on: Klebsiella pneumoniae; test: Antibacterial activity against Klebsiella pneumoniae C expressing CTX-M group 1 beta-lactamase by Etest method in presence of clavulanic acid; type: functional
[16] = tested on: Klebsiella pneumoniae; test: Antibacterial activity against Klebsiella pneumoniae B expressing CTX-M group 1 beta-lactamase by Etest method; type: functional
[17] = tested on: Klebsiella pneumoniae; test: Antibacterial activity against Klebsiella pneumoniae A expressing CTX-M group 1 beta-lactamase by Etest method; type: functional
[18] = tested on: Escherichia coli; test: Antibacterial activity against rifampicin resistant Escherichia coli J53-2 by Etest method
[19] = tested on: Escherichia coli; test: Antibacterial activity against Escherichia coli TrC B expressing Klebsiella pneumoniae B blaCTX-M beta-lactamase by Etest method in presence of Tazobactam; type: functional
[20] = tested on: Escherichia coli; test: Antibacterial activity against rifampicin resistant Escherichia coli J53-2 by Etest method in presence of Tazobactam; type: functional
[21] = tested on: Klebsiella pneumoniae; test: Antibacterial activity against Klebsiella pneumoniae B expressing CTX-M group 1 beta-lactamase by Etest method in presence of Tazobactam; type: functional
[22] = tested on: Klebsiella pneumoniae; test: Antibacterial activity against Klebsiella pneumoniae A expressing CTX-M group 1 beta-lactamase by Etest method in presence of Tazobactam; type: functional
[23] = tested on: Escherichia coli; test: Antibacterial activity against Escherichia coli TrC C expressing Klebsiella pneumoniae C blaCTX-M beta-lactamase by Etest method in presence of Tazobactam; type: functional
[24] = tested on: Klebsiella pneumoniae; test: Antibacterial activity against Klebsiella pneumoniae C expressing CTX-M group 1 beta-lactamase by Etest method in presence of Tazobactam; type: functional
[25] = tested on: Escherichia coli; test: Antibacterial activity against Escherichia coli TrC A expressing Klebsiella pneumoniae A blaCTX-M beta-lactamase by Etest method in presence of Tazobactam; type: functional

## CO/N=C(\C(=O)N[C@@H]1C(=O)N2C(C(=O)O)=C(COC(C)=O)CS[C@H]12)c1csc(N)n1 [CEFOTAXIME]
[1]
  MIC: 0.125 µg/mL
[2]
  MIC: 0.047 µg/mL
  MIC50: 0.047 µg/mL
  MIC90: 0.125 µg/mL
[3]
  MIC: 256 µg/mL (≈ 562 µM)
[4]
  MIC: 48 µg/mL (≈ 105 µM)
  MIC50: > 256 µg/mL
  MIC90: > 256 µg/mL
[5]
  MIC: ≤ 0.06 µg/mL
[6]
  MIC: 256 µg/mL (≈ 562 µM)
[7]
  MIC: 0.125 µg/mL
[8]
  MIC: 0.032 µg/mL
  MIC50: 0.047 µg/mL
  MIC90: > 1 µg/mL
[9]
  MIC: 0.047 µg/mL
  MIC50: 0.094 µg/mL
  MIC90: 0.094 µg/mL
[10]
  MIC: 0.023 µg/mL
  MIC50: 0.023 µg/mL
  MIC90: 0.19 µg/mL
[11]
  MIC: > 256 µg/mL
  MIC50: > 256 µg/mL
  MIC90: > 256 µg/mL
[12]
  MIC: > 256 µg/mL
  MIC50: > 256 µg/mL
  MIC90: > 256 µg/mL
[13]
  MIC: 256 µg/mL (≈ 562 µM)
[14]
  MIC: 0.125 µg/mL
[15]
  MIC: 0.047 µg/mL
  MIC50: 0.125 µg/mL
  MIC90: > 1 µg/mL
[16]
  MIC: 96 µg/mL (≈ 211 µM)
  MIC50: > 256 µg/mL
  MIC90: > 256 µg/mL
[17]
  MIC: 64 µg/mL (≈ 141 µM)
  MIC50: > 256 µg/mL
  MIC90: > 256 µg/mL
[18]
  MIC: 0.25 µg/mL (≈ 0.549 µM)

## CC(C)(O/N=C(\C(=O)N[C@@H]1C(=O)N2C(C(=O)[O-])=C(C[n+]3ccccc3)CS[C@H]12)c1csc(N)n1)C(=O)O [CEFTAZIDIME]
[1]
  MIC: 0.5 µg/mL
[2]
  MIC: 0.19 µg/mL
  MIC50: 0.38 µg/mL
  MIC90: 0.5 µg/mL
[3]
  MIC: 32 µg/mL (≈ 58.5 µM)
[4]
  MIC: 4 µg/mL (≈ 7.32 µM)
  MIC50: 48 µg/mL (≈ 87.8 µM)
  MIC90: 128 µg/mL (≈ 234 µM)
[5]
  MIC: 0.25 µg/mL
[6]
  MIC: 64 µg/mL (≈ 117 µM)
[7]
  MIC: 0.5 µg/mL
[8]
  MIC: 0.125 µg/mL
  MIC50: 0.25 µg/mL
  MIC90: > 4 µg/mL
[9]
  MIC: 0.25 µg/mL
  MIC50: 0.38 µg/mL
  MIC90: 0.5 µg/mL
[10]
  MIC: 0.19 µg/mL
  MIC50: 0.25 µg/mL
  MIC90: 0.5 µg/mL
[11]
  MIC: 24 µg/mL (≈ 43.9 µM)
  MIC50: 48 µg/mL (≈ 87.8 µM)
  MIC90: 128 µg/mL (≈ 234 µM)
[12]
  MIC: 16 µg/mL (≈ 29.3 µM)
  MIC50: 192 µg/mL (≈ 351 µM)
  MIC90: > 256 µg/mL
[13]
  MIC: 128 µg/mL (≈ 234 µM)
[14]
  MIC: 0.5 µg/mL
[15]
  MIC: 0.38 µg/mL
  MIC50: 0.75 µg/mL
  MIC90: 1 µg/mL
[16]
  MIC: 24 µg/mL (≈ 43.9 µM)
  MIC50: 32 µg/mL (≈ 58.5 µM)
  MIC90: 64 µg/mL (≈ 117 µM)
[17]
  MIC: 16 µg/mL (≈ 29.3 µM)
  MIC50: 32 µg/mL (≈ 58.5 µM)
  MIC90: 96 µg/mL (≈ 176 µM)
[18]
  MIC: 0.5 µg/mL (≈ 0.915 µM)

## C[C@]1(Cn2ccnn2)[C@H](C(=O)O)N2C(=O)C[C@H]2S1(=O)=O [TAZOBACTAM]
[19]
  MIC: 16 µg/mL
[20]
  MIC: 4 µg/mL
[21]
  MIC: > 64 µg/mL
[22]
  MIC: 4 µg/mL
[23]
  MIC: 16 µg/mL
[24]
  MIC: > 64 µg/mL
[25]
  MIC: 4 µg/mL
